These results are taken from patent US20210130401A1, “PEPTIDOMIMETIC INHIBITORS OF THE WDR5-MLL INTERACTION” (THE REGENTS OF THE UNIVERSITY OF MICHIGAN, priority 2017, published 2021).

One may read the IC50 as the concentration that inhibits the measured activity by half. The term Ki denotes the equilibrium dissociation constant of an inhibitor or competing ligand from its target.

Read-outs that look alike come from different tables or passages of the source. Starred links: 1 amine or outer side, 2 acyl side, 3 side chain; linkers in the order of their positions; H or OH if unused. Positions of bridges follow the written chain, without caps; N, C: chain ends. Non-standard residues stand in square brackets, D forms with d. Residues, ends and D or L forms follow the SMILES beside them. *: point of attachment. dαMeDab = C[C@](CCN[*:3])(N[*:1])C(=O)[*:2]; Arg(Me) = CNC(=N)NCCC[C@H](N)C(=O)O; d(αMeOrn) = C[C@@](N)(CCCN)C(=O)O; dPhg = N[C@@H](C(=O)O)c1ccccc1; dDab = NCC[C@@H](N)C(=O)O; Isobutyryl = CC(C)C(=O)*; Abu = CC[C@H](N)C(=O)O

Series [1] concerns HL-60 leukemia cells carrying no MLL fusion. Briefly: cell viability assay (WST-8), HL-60. The format is cell-based. Conditions: for IC50: read-out: Cell Growth Inhibition IC50 (μM) HL-60. On the procedure: Cell viability was determined using the WST-8 cell proliferation assay kit (Dojindo Molecular Technologies) according to manufacturer's instructions. Three independent experiments in triplicates were performed.
(Tetrazolium dyes change colour on reduction, which living cells bring about.)

Series [2] deals with MOLM-13 leukemia cells carrying MLL-AF9 fusion. Briefly: cell viability assay (WST-8), MOLM-13. The format is cell-based. Conditions: Homo sapiens, MOLM-13, 96 h, read-out: Cell Growth Inhibition IC50 (μM) MOLM-13.
The subject of series [3] is MV4;11 leukemia cells carrying MLL-AF4 fusion. Briefly: cell viability assay (WST-8), MV4;11. The format is cell-based. Conditions: Homo sapiens, MV4-11, 96 h, read-out: Cell Growth Inhibition IC50 (μM) MV-4-11.
Procedure: To assess cell viability, MOLM-13 leukemia cells carrying MLL-AF9 fusion, MV4;11 leukemia cells carrying MLL-AF4 fusion or HL-60 leukemia cells carrying no MLL fusion were seeded 1×10^4 cell/well in 96-well plates and treated with an inhibitor for 4 days at different concentrations, in culture media containing 0.2% DMSO as the final concentration. Cell viability was determined using the WST-8 cell proliferation assay kit (Dojindo Molecular Technologies) according to manufacturer's instructions. Three independent experiments in triplicates were performed.
The target in another series is T1, MLL complex (Homo sapiens, UniProt P61964).
T1 construct: full length human WDR5 with N-terminal 6×His tag; purchased Activmotif (Carlsbad, Calif.)
As to the kind of experiment: AlphaLISA MLL HMT functional assay (cell-free). The format is biochemical. The conditions noted are these: read-out: Inhibition of MLL HMT Activity IC50 ± SD.

The next series has as its target T2, WDR5 (Homo sapiens, UniProt P61964).
T2 construct: N-terminal His-tagged WDR5 protein (residues 24-334), named WDR5Δ23; made in house; host or cells: E. coli Rosetta 2 (DE3)
As to the kind of experiment: fluorescence polarization (FP) based competitive binding assay to WDR5 protein. For orientation: Polarisation of emitted light reports the rotation of a fluorescent probe.

Series [4] is described as follows: stability in cell culture media. The format is physicochemical. The conditions noted are these: up to 7 days; data not shown. On the procedure: To assess the effect of long-term treatment of compound Cpd. No. 5 on leukemia cells, MOLM-13 and MV4;11 cell lines were plated at a density of 5×10^4 cell/ml in 24-well plates (2 ml/well), and treated with the relevant concentrations. On day 4, cell viability for each treatment was measured using the WST-8 cell count kit. Then 10% of viable cells from each well were transferred to freshly prepared medium containing corresponding concentrations of compound Cpd. No. 5 and cultured for additional 3 days. On day 7, cell viability for each treatment was determined. In this experiment, 100,000 cells were seeded in each well in 24-well plates, whereas the cell growth inhibition data obtained for Cpd. No. 64 in Table 2 was obtained by seeding 10,000 cells in 96-well plates. Additionally, Cpd. No. 5 is stable in cell culture media up to 7 days (data not shown).

For a further series, the system named is MLL2. Briefly: HMT assay, SET1 family specificity. The conditions noted are these: up to 100 μM; data not shown. The format is biochemical. On the procedure: (§1) The specificity of Cpd. No. 5 was tested against MLL and other SET1 family members (MLL2, MLL3, MLL4, SET1a and SET1b) using the previously published HMT assays (Karatas et al., J. Med. Chem. 53:5179-5185 (2010)). Cpd.

The test system of a further series is MLL4. As to the kind of experiment: HMT assay, SET1 family specificity. In kind it is biochemical. The conditions noted are these: up to 100 μM; data not shown. On the procedure: as §1
A further series has as its target MLL3 (Homo sapiens, UniProt Q8NEZ4). As to the kind of experiment: HMT assay, SET1 family specificity. The conditions noted are these: up to 100 μM; data not shown. In kind it is biochemical. As for the experimental part:
as §1

A further series concerns the target SET1a (Homo sapiens, UniProt O15047). Briefly: HMT assay, SET1 family specificity. The format is biochemical. Conditions: up to 100 μM; data not shown. On the procedure: as §1
Another series concerns the target SET1b (Homo sapiens, UniProt Q9UPS6). Briefly: HMT assay, SET1 family specificity. Conditions: up to 100 μM; data not shown. The format is biochemical. On the procedure: as §1
[5] abbreviates: Homo sapiens, HL-60, 96 h, 4 days treatment.
[6] abbreviates: calculated from IC50 by published equation, read-out: Binding Affinity to WDR5 Ki ± SD.
Where [7] appears, read: read-out: Binding Affinity to WDR5 IC50 ± SD.

Source text for MLL complex: To avoid multiple wash and transfer steps, an amplified luminescent proximity homogeneous assay (AlphaLISA) was developed and optimized to evaluate the MLL HMT inhibitory activities of the Compounds of the Disclosure.
In this assay, recombinant nucleosomes are initially treated with the MLL complex for methylation in the presence of S-Adenosyl methionine (SAM) as cofactor before stopping the reaction with high salt buffer. Then, anti-H3K4Mel/2 antibody, which is covalently linked to acceptor beads, and biotinylated anti-H3 (C-terminus) antibody were added.
Anti-Histone H3 Lysine 4 (H3K4mel-2) AlphaLISA acceptor beads, AlphaScreen Streptavidin donor beads and biotinylated anti-H3 (C-terminus) antibody were obtained from PerkinElmer Life Sciences (Waltham, Mass.). 2.5 μl of compound serial dilutions in assay buffer with 4% DMSO and 5 μl of pentameric MLL complex solution were added into a white low volume 384 well microtiter plate which was incubated for 30 minutes with gentle shaking at room temperature, followed by adding 2.5 μl of SAM/Nucleosome mixture. The methylation reaction was performed in 50 mM Tris, pH 8.5 with 1 mM DTT and 0.01% Tween-20 added right before the assay. Final concentrations of MLL complex, SAM, and nucleosomes were 5 nM, 200 nM, and 3 nM, respectively. Final DMSO in the reaction mixture was 1%. The reaction was allowed to perform for 120 minutes in dark with gentle shaking at room temperature. […] 5 μL of high salt stopping solution (50 mM Tris, pH 7.4 with 1 M NaCl, 0.1% Tween-20, and 0.3% poly-L-Lysine) was added to stop the methylation reactions for 15 minutes. 5 μl of 5× acceptor beads/biotinylated anti-H3 antibody mixture in detection buffer (50 mM Tris, pH 7.4 with 0.3 M NaCl, 0.1% Tween-20, and 0.001% poly-L-Lysine) was added, followed by 1 hour incubation at room temperature to allow full interaction between antibodies and methylated nucleosomes. Add 5 μL of 5× streptavidin donor beads in detection and incubate 30 minutes.
Procedure for WDR5: The plates were incubated at room temperature on a shaker for 3h, and then the mP values were measured using the Tecan Infinite M-1000 plate reader (Tecan U.S., Research Triangle Park, N.C.).

On to `CC[C@@H]1NC(=O)[C@H](CCCNC(=N)N)NC(=O)[C@H](NC(=O)C(C)C)CCNC(=O)[C@@H](c2ccccc2)NC1=O` [Cpd. No. 1, N-((3R,6S,9S,12R)-6-ethyl-9-(3-guanidinopropyl)-2,5,8,11-tetraoxo-3-phenyl-1,4,7,10-tetraazacyclotetradecan-12-yl)isobutyramide] (Isobutyryl-[dDab]R[Abu][dPhg]; lactam 1-C), for which the IC50 in [1] (setting [5]) is above 100 µM; in series [2] (4 days treatment), 42.8 µM; in series [3] (4 days treatment) it was 43.4 µM; at MLL complex, 1.8 ± 0.4 nM; on WDR5 (setting [7]) it was 6.2 ± 0.5 nM. For the same molecule, the inhibition constant (Ki) on WDR5 (setting [6]) was 0.8 ± 0.1 nM.
Consider `CC[C@@H]1NC(=O)[C@H](CCCNC(=N)NC)NC(=O)[C@](C)(NC(=O)C(C)C)CCNC(=O)[C@@H](c2ccccc2)NC1=O` [Cpd. No. 5, N-((3R,6S,9S,12R)-6-ethyl-12-methyl-9-(3-(3-methylguanidino)propyl)-2,5,8,11-tetraoxo-3-phenyl-1,4,7,10-tetraazacyclotetradecan-12-yl)isobutyramide] (Isobutyryl-[dαMeDab][Arg(Me)][Abu][dPhg]; lactam 1-C), for which the IC50 in series [1] (4 days treatment) was 8.56 ± 1.14 µM; in [1] (setting [5]) it was 8.6 µM; in series [2] (4 days treatment) it was 0.21 µM; in [3] (4 days treatment) it was 0.25 µM; at WDR5 (Table 3A, read-out: Binding Affinity to WDR5 IC50), 2.13 nM; on WDR5 (setting [7]) it was 0.9 ± 0.2 nM. Besides, in [1] (cell growth inhibition IC50 ratio), the “selectivity for the MV4;11 and MOLM-13 cell lines harboring MLL translocations over the HL-60 cell line” value is listed as above 30 fold. Further, the “stability in cell culture media” value in [4] is “stable”. Also, the “inhibition of the HMT activity of MLL2” value in the series with MLL2 is on record as “no or a minimal effect”. For the same molecule, the “inhibition of the HMT activity of MLL4” value in the series on MLL4 is reported as “no or a minimal effect”. The “inhibition of the HMT activity of MLL3” value against MLL3 was “no or a minimal effect”. Moreover, the “inhibition of the HMT activity of SET1a” value at SET1a is recorded as “no or a minimal effect”. In addition, the “inhibition of the HMT activity of SET1b” value against SET1b is “no or a minimal effect”. Besides, the Ki at WDR5 (Table 3A, read-out: Binding Affinity to WDR5 Ki) is below 1 nM; on WDR5 (setting [6]) it was below 1 nM.
For the molecule `CC[C@@H]1NC(=O)[C@H](CCCNC(=N)N)NC(=O)[C@](C)(NC(=O)C(C)C)CCCNC(=O)[C@@H](c2ccccc2)NC1=O` [Cpd. No. 74, N-((3R,6S,9S,12R)-6-ethyl-9-(3-guanidinopropyl)-12-methyl-2,5,8,11-tetraoxo-3-phenyl-1,4,7,10-tetraazacyclopentadecan-12-yl)isobutyramide] (Isobutyryl-[d(αMeOrn)]R[Abu][dPhg]; lactam 1-C), the IC50 in series [1] (setting [5]) came out at 46.8 µM; in [2] (4 days treatment) it was 1.28 ± 0.01 µM; in [3] (4 days treatment), 1.29 µM; on WDR5 (setting [7]), 0.97 ± 0.13 nM. In addition, on WDR5 (setting [6]), the Ki was below 1 nM.
On the same counts, the results for `CC[C@@H]1NC(=O)[C@H](CCCNC(=N)N)NC(=O)[C@](C)(NC(=O)C(C)C)CCCCCNC(=O)[C@@H](c2ccccc2)NC1=O` [Cpd. No. 75, N-((3R,6S,9S,12R)-6-ethyl-9-(3-guanidinopropyl)-12-methyl-2,5,8,11-tetraoxo-3-phenyl-1,4,7,10-tetraazacycloheptadecan-12-yl)isobutyramide] are above 100 µM, 37.6 ± 12.1 µM, 15.1 ± 11.8 µM, 2.6 ± 0.2 nM and below 1 nM.
`CC[C@@H]1NC(=O)[C@H](CCCNC(=N)N)NC(=O)[C@](C)(NC(=O)C(C)C)CCCCCCNC(=O)[C@@H](c2ccccc2)NC1=O` [Cpd. No. 76, N-((3R,6S,9S,12R)-6-ethyl-9-(3-guanidinopropyl)-12-methyl-2,5,8,11-tetraoxo-3-phenyl-1,4,7,10-tetraazacyclooctadecan-12-yl)isobutyramide]: the IC50 in series [1] (Homo sapiens, HL-60, 96 h) stood at 29.7 ± 11.5 µM; in series [2], 5.6 ± 0.7 µM; in series [3], 3.2 ± 0.4 µM; at MLL complex it was 216 ± 88 nM; on WDR5, 1 ± 0.2 nM. The molecule also registered a Ki on WDR5 below 1 nM.
For the molecule `CC[C@@H]1NC(=O)[C@H](CCCNC(=N)N)NC(=O)[C@](C)(NC(=O)C(C)C)CCCCCCCCNC(=O)[C@@H](c2ccccc2)NC1=O` [Cpd. No. 77, N-((3R,6S,9S,12R)-6-ethyl-9-(3-guanidinopropyl)-12-methyl-2,5,8,11-tetraoxo-3-phenyl-1,4,7,10-tetraazacycloicosan-12-yl)isobutyramide], the IC50 is above 100 µM in series [1] (Homo sapiens, HL-60, 96 h); 21.6 ± 4.8 µM in series [2]; 7.5 ± 3 µM in series [3]; 744 ± 79 nM on MLL complex; 1.3 ± 0.2 nM at WDR5. Also, the Ki on WDR5 was below 1 nM.
